Assay results from US8034899B2, “HIV fusion inhibitor peptides with improved biological properties” (priority 2006, dated 2011).

Legend:
[1] = Pharmacokinetics after intravenous dosing in cynomolgus monkeys; assay type: in vivo, cynomolgus monkeys (Macaca fasicularis); settings: plasma
Procedure: For determining pharmacokinetic properties, an HIV fusion inhibitor peptide or a base sequence from which an HIV fusion inhibitor peptide is derived was dosed intravenously in cynomolgus monkeys (Macaca fasicularis) (other animal models may be used for determining pharmacokinetic properties, as known in the art). At various times post-dose, blood samples were drawn and plasma isolated by centrifugation. Plasma samples were stored frozen until analysis by LC-MS (liquid chromatography/mass spectrometry) in the electrospray, positive-ion mode. An HIV fusion inhibitor or base sequence was eluted from a C18 or C8 HPLC column with a gradient of acetonitrile in a buffer of 10 mM ammonium acetate, pH 6.8. At the time of analysis, plasma samples were deproteinated with either two or three volumes of acetonitrile containing 0.5% formic acid. Duplicate calibration standards in cynomolgus plasma samples were prepared at the same time as the samples and analyzed before and after the samples containing either HIV fusion inhibitor peptide or base sequence. Pharmacokinetic properties were calculated from the plasma concentration-time data using either mono-exponential or bi-exponential mathematical models. Models were derived by non-linear least squares optimization. A 1/C^2 weighting of concentrations was used. […]

HIV-1 IIIB = settings: cited from earlier work
584.000060 = assay: In vitro resistance selection in MT2 cells, cMAGI susceptibility, isolate 584.000060; assay type: cell-based, HIV; settings: starting isolate 584.000060
Text: (§1) Assessment of biological properties included measurement of antiviral activity against HIV-1 strains. […] These assays score for reduction of infectious virus titer employing the indicator cell lines MAGI or the CCR5 expressing derivative cMAGI. Both cell lines exploit the ability of HIV-1 tat to transactivate the expression of a β-galactosidase reporter gene driven by the HIV-LTR. The β-gal reporter has been modified to localize in the nucleus and can be detected with the X-gal substrate as intense nuclear staining within a few days of infection. […] The number of infected cells for each control and peptide dilution was determined with the CCD-imager, and then the IC50 was calculated (expressed in μg/ml).
(§2) MT2 cells were infected with virus isolates (IIIB, 030, 060 and 098) and cultured in increasing concentrations of SEQ ID NO:2 (enfuvirtide) or SEQ ID NO:9 to select for resistance. […] Cultures were monitored for cytopathic effect (CPE) using standard techniques and when maximal CPE was achieved, a small aliquot of virus was used for subsequent rounds of infection. […] Peptide-free virus stocks were characterized for gp41 genotypic changes by dideoxy sequencing chemistries and phenotypic susceptibility was determined using a cMAGI infectivity assay.

[2] = 10 mg/ml in PBS, pH 7.3 to 7.5, 37° C., after several hours
[3] = no additional components; cited from earlier work
IIIB = assay: In vitro resistance selection in MT2 cells, cMAGI susceptibility, isolate IIIB; assay type: cell-based, HIV; settings: starting isolate IIIB
Text: as §1, §2

584.000030 = assay: In vitro resistance selection in MT2 cells, cMAGI susceptibility, isolate 584.000030; assay type: cell-based, HIV; settings: starting isolate 584.000030
Text: as §1, §2

584.000098 = assay: In vitro resistance selection in MT2 cells, cMAGI susceptibility, isolate 584.000098; assay type: cell-based, HIV; settings: starting isolate 584.000098
Text: as §1, §2

HIV-1LA1 = settings: cited from earlier work
[4] = tested on: virus isolates (IIIB, 030, 060 and 098); assay: In vitro resistance selection, geometric mean over the four isolates; assay type: cell-based, HIV; settings: Geometric Mean of four isolates
Text: MT2 cells were infected with virus isolates (IIIB, 030, 060 and 098) and cultured in increasing concentrations of SEQ ID NO:2 (enfuvirtide) or SEQ ID NO:9 to select for resistance. The initial peptide concentration was approximately 2 times the IC50 of each peptide against the corresponding wild type isolate. Peptide concentrations were maintained by adding fresh peptide every 1-3 days. Cultures were monitored for cytopathic effect (CPE) using standard techniques and when maximal CPE was achieved, a small aliquot of virus was used for subsequent rounds of infection. Peptide concentrations were increased 2 to 4-fold depending on the length of time in culture when compared to the growth rate of wild type virus. During the course of selection, peptide-free virus stocks were also collected. Peptide-free virus stocks were characterized for gp41 genotypic changes by dideoxy sequencing chemistries and phenotypic susceptibility was determined using a cMAGI infectivity assay.

Ac-TTWEAWDRAIAEYAARIEALLRAAQEQQEKLEAALREL-NH2 [SEQ ID NO:10, TTWEAWDRAIAEYAARIEALLRAAQEQQEKLEAALREL]
Clearance [1]: <0.33 mL/min/kg

Ac-TTWEAWDRAIAEYAARIEALLRALQEQQEKNEAALREL-NH2 [SEQ ID NO:9, TTWEAWDRAIAEYAARIEALLRALQEQQEKNEAALREL]
Clearance [1]: <0.33 mL/min/kg

MTWMEWDREINNYTSLIHSLIEESQNQQEKNEQELL [T651]
IC50 blocking infection of target cells (HIV-1 IIIB): 5 ng/mL

enfuvirtide
Fold Change in IC50 (584.000060): 7 fold | stability of the solution (peptide remaining in solution) [2]: minimal peptide detected in solution | concentration achievable in an injectable aqueous solution without problems of solubility and stability [3]: ≤ 100 mg/mL | Fold Change in IC50 (IIIB): 27 fold | Fold Change in IC50 (584.000030): 19 fold | Fold Change in IC50 (584.000098): 912 fold | EC50 blocking infection of target cells (HIV-1LA1): 0.5 ng/mL | Fold Change in IC50 [4]: 42 fold
